Experiments:
Type in all cases: in vivo, rat
myocardial cells = assay: Electron microscope findings in left ventricular papillary muscle after ischemia/reperfusion; details: GGA-treated rats, 20 min no-flow ischemia and 30 min reperfusion
Protocol: After 30 minutes of reperfusion […] 20 minutes of no-flow ischemia, the papillary muscle of the left ventricle was immediately removed from the GGA-treated and Control hearts, and cut into small blocks. The tissue blocks were then fixed in a cacodylate buffered (pH 7.4) solution containing 2.5% glutaraldehyde and paraformaldehyde at 4° C. for 2 hours, and postfixed in a cocodylate buffered (pH 7.4) solution containing 2% osmium tetroxide and 0.5% potassium ferrocyanide at 4° C. for 2 hours. The tissue blocks were then dehydrated in ethanol and embedded in epoxy resin. Ultra-thin sections were stained with uranyl acetate and lead cistate, and were viewed under a transmission electron microscope (JOEL-100CX, Tokyo).

HSP60 = HSP60 induction in the heart after oral administration (Western blotting); details: oral 200 mg/kg, 24 hours after administration, FIG. 3(B)
Protocol: (§1) An emulsion of 100% by weight of geranylgeranylacetone (GGA) with 5% by weight of gum arabic and 0.008% by weight of tocopherol was given orally to the rats described above. The oral dosages were 50 mg/kg, 100 mg/kg, 200 mg/kg and 400 mg/kg (GGA groups). […] The vehicle was administered orally to the Control Group.
(§2) Next, the hearts were removed from the killed rats and frozen in liquid nitrogen.
(§3) Western blotting was then performed (Maloyan A, Palmon A, Horowitz M. Heat acclimation increases the basal HSP70 level and alters its production dynamics during heat stress. Am J Physiol 1999; 276:R1506-R1515). The frozen hearts were homogenized with SDS (sodium dodecyl sulfate) buffer, centrifuged and boiled.
(§4) The total protein concentration of the myocardium was quantified by the Bradford method (Bradford M M. A rapid and sensitive method for quantitation of microgram quantities of protein utilizing the principle of protein-dye binding. Anal Biochem 1976; 72:248-254). The prepared hearts were then diluted in electrolyte buffer. […] The proteins were detected by exposing the ECL cells with Hyperfilm (Amersham Pharmacia, Buckinghamshire, UK). Based on this, the amount of proteins on the immunoblots was quantified using National Institutes of Health (NIH) imaging software. […]

isolated perfused heart = assay: Isolated perfused heart experiments (Langendorff, 20 min no-flow global ischemia, 30 min reperfusion), Example 2
Protocol: Male Sprague-Dawley rats (220-250 g) were used. GGA, as an emulsion with 5% gum arabic and 0.008% tocopherol, was given orally at a dose of 200 mg/kg. Rats were classified into 4 groups. FIG. 7 is a diagrammatic representation of experimental protocol. […] Twenty-four hours after oral administration of GGA or vehicle, rats were anesthetized (sodium pentobarbital, 50 mg/kg IP) and heparinized (500 IU/kg IP). Hearts were excised, immediately frozen in liquid nitrogen, and stored at −70° C. until use for Western blot analysis (n=4 for each group). To examine the cardiac function during ischemia and reperfusion, hearts of each group were prepared for isolated perfused experiments using Langendorff apparatus (n=7-9 for each group, FIG. 7).
Twenty-four hours after administration-of 200 mg/kg of GGA or vehicle, rats of 4 groups were heparinized (500 IU/kg, IP) and anesthetized with sodium pentobarbital (50 mg/kg, IP). Each heart was isolated and perfused retrogradely using the Langendorff method with Krebs-Henseleit buffer (pH 7.4, [in mM] 118 NaCl, 4.7 KCl, 2.5 CaCl2, 1.2 MgSO4, 1.2 KH2PO4, 25.0 Na2HCO3, 11.0 glucose) equilibrated with 95% O2-5% CO2 gas mixture at 36.5° C. at a constant pressure of 75 mm Hg. A water-filled latex balloon was inserted through the mitral orifice into the left ventricle (LV) and the LV end-diastolic pressure (LVEDP) was adjusted to 0-5 mm Hg. During the initial 10 min of constant pressure perfusion, the perfusion flow rate was determined for each heart, which was then perfused at a determined perfusion rate using a microtube pump while the heart was covered with water-jacketed glassware and the relative humidity maintained at 90% or more. Normothermic no-flow global ischemia was initiated for 20 min, followed by reperfusion for 30 min. The coronary effluent during the 30 min of reperfusion period was collected for measurement of creatine kinase content (released CK).
LV pressure was monitored using a pressure transducer to obtain the peak positive and negative first derivatives of LV pressure (dP/dtmax and dP/dtmin). […] Coronary perfusion pressure (CPP) was defined as the hydraulic pressure measured at the level of aortic cannulation. LV pressure, CPP and electrocardiogram were continuously recorded on a polygraph recorder (WS-681G, Nihon Kohden) and stored on a PCM data recorder (RD-111T, TEAC) for later analysis.
Data are expressed as mean ±SEM. Serial changes in LVDP, LVEDP, CPP, and dP/dt were analyzed by two-way analysis of variance (ANOVA) followed by the Bonferroni/Dunn test, unless otherwise specified. Comparisons among groups with respect to the hemodynamic parameters at baseline and the ratio of released CK to ventricular weight were analyzed by one-way ANOVA followed by the Bonferroni/Dunn test. […]

HSP70 = HSP70 induction in the heart after oral administration (Western blotting), Example 1
Protocol: Male Sprague-Dawley rats (220-250 g) were anesthetized with pentobarbital (20 mg/kg, i.p.). They were subjected to whole-body hyperthermia by soaking for 10 minutes in a bath in which the water temperature was maintained at 43° C. (Heat Stress Group), with their heads on pillows to avoid aspiration of water. rectal temperatures were measured as body temperatures rose throughout the whole-body hyperthermia.
as §1
To examine the time-dependent expression of HSP70, rats were killed by deep anesthesia with pentobarbital (50 mg/kg, i.v.) 6, 12, 24 and 48 hours after administration of the GGA or vehicle or 6, 12, 24 and 48 hours after heat stress.
as §2, §3
The total protein concentration of the myocardium was quantified by the Bradford method (Bradford M M. A rapid and sensitive method for quantitation of microgram quantities of protein utilizing the principle of protein-dye binding. Anal Biochem 1976; 72:248-254). The prepared hearts were then diluted in electrolyte buffer. Total protein in each heart was subjected to electrophoresis on 8.5% SDS-Polyacrylamide gel (SDS-PAGE), and transferred to a PVDF (polyvinylidene fluoride) membrane. After blocking with 0.5% nonfat milk, the PVDF membranes were incubated with antibodies. The proteins were detected by exposing the ECL cells with Hyperfilm (Amersham Pharmacia, Buckinghamshire, UK). Based on this, the amount of proteins on the immunoblots was quantified using National Institutes of Health (NIH) imaging software.

eNOS = eNOS induction in the heart after oral administration (Western blotting); details: oral 200 mg/kg, 24 hours after administration, FIG. 4(A)
Description: Monoclonal IgG antibody cross-reactive to HSP70, HSP60 and HSP27 antibodies was purchased from Stressgen Biotechnologies Corporation ([…], Canada). Primary antibodies of nitric oxide synthase (NOS) or in other words inducible NOS (iNOS), endothelial NOS (eNOS) and neuronal NOS (nNOS) were purchased from Transduction Laboratories (Lexington, Ky.). The primary antibody of thioredoxin was kindly provided by Professor Yodoi of Kyoto University.
as §1
Next, the hearts were removed from the killed rats and frozen in liquid nitrogen. […]
as §4, with “72:248-254).” for “72:248-254). The prepared hearts were then diluted in electrolyte buffer.”

[1] = oral, 24 hours after administration, FIG. 2

## CC(=O)CCC=C(C)CCC=C(C)CCC=C(C)CCC=C(C)C [GGA, 6, 10, 14, 18-tetramethyl-5,9, 13, 17-nonadecatetraen-2-one]
Myocardial cells
  microstructure of myocardial cells by transmission electron microscopy: preserved microstructurally
HSP60
  HSP60 expression versus control group: significantly decreased
Isolated perfused heart; 30-min reperfusion period after 20 min ischemia, FIG. 12
  released creatine kinase (CK) relative to ventricular weight: lower
Isolated perfused heart; 20 min no-flow global ischemia, 30 min reperfusion, FIG. 11
  recovery of LVDP, LVEDP and dP/dt on reperfusion versus CNT group: greater
HSP70; oral 0-400 mg/kg, hearts removed 24 hours after administration, FIG. 2
  detected (induced) amount of HSP70 in the heart versus dosage: increased as the dosage increased
HSP70; oral 200 mg/kg, 48 hours after administration, FIG. 1
  detected amount of HSP70 in the heart after 48 hours: decreased
HSP70; oral 200 mg/kg, FIG. 1
  time at which the detected (induced) amount of HSP70 peaked: 24 h
  time from which HSP70 was detected in the heart: about 6 hours
HSP70; [1]
  detected amount of HSP70 above 400 mg/kg: No increase in detected amount was seen
  dosage at which HSP70 induction peaked: 200 mg/kg
eNOS
  eNOS induction in the heart: neither iNOS nor eNOS was induced
